Measured values published in PubChem BioAssay AID463203 (Broad Institute, 2010).
Activity calls are given as the source filed them.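 How the source made its calls: active means more than half of replicate measurements showing over 20% loss of kinase signal relative to plate controls; inconclusive means some but at most half of replicates over 20% loss; inactive means no replicate over 20% signal loss.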

Each compound was assayed against Glycogen synthase kinase-3 alpha (Homo sapiens) (UniProt P49840) (assay: concentration-response blocking of human GSK3A – biochemical, luminescence, cell-free homogeneous, retest, dose response (AID 463203)). Details: GSK-3 alpha enzyme, ADP-Glo luminescence, 60 min.
Chain of Glycogen synthase kinase-3 alpha (Homo sapiens) (P49840 whole entry, looked up): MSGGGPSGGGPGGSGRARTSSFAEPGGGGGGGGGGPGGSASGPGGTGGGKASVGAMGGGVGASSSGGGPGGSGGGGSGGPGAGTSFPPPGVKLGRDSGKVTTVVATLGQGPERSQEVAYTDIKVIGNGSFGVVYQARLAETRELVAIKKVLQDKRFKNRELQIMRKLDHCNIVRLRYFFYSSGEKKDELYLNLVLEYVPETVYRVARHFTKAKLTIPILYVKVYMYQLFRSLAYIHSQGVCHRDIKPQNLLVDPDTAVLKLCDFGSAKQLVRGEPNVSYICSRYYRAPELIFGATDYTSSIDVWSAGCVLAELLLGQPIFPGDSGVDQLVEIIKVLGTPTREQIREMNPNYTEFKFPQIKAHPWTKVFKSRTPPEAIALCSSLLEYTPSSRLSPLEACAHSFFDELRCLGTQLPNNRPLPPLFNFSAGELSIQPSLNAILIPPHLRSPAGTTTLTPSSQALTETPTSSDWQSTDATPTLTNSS

Structure (SMILES) | AC50
CCSc1ccccc1C(=O)Nc1cccnc1 | > 30 µM (inactive)
N#Cc1c(Cl)c(Cl)c2nnc(-c3ccc(Br)cc3)n2c1Cl | 20.6 µM
N#CCSc1nnc(-c2ccc3c(c2)OCO3)o1 | 18.1 µM
O=C1NC(=Nc2cccc(O)c2)S/C1=C\c1cccc([N+](=O)[O-])c1 | > 30 µM (inactive)
CCCC(=O)Nc1cc(-c2cn3cccnc3n2)ccc1OC | > 30 µM (inactive)
O=C(O)Cn1cc(/C=N/NC(=O)c2cc3cc(Br)ccc3o2)c2ccccc21 | 6.05 µM
COc1ccc(-c2nc(N)n[nH]2)cc1 | > 30 µM (inactive)
CC1CCC2(CC1)NC(=O)N(CC(=O)Nc1ccc(C(N)=O)cc1)C2=O (stereo not given) | > 30 µM (inactive)
Cc1nc2cc(-c3ccccc3)ccc2o1 | > 30 µM (inactive)
Cc1nc(SCC(=O)NCC2CCCO2)c2c3c(sc2n1)CCC3 (stereo not given) | > 30 µM (inactive)
CCOC(=O)c1cnc2c(C(F)(F)F)cccc2c1N1CCN(C)CC1 | > 30 µM (inactive)
Cc1ccc2oc(=O)c3cnn(CC(=O)N4CCc5ccccc5C4)c3c2c1 | > 30 µM (inactive)
COc1ccc(Nc2nc(S(=O)(=O)c3ccc(C)cc3)c(Cl)s2)cc1 | > 30 µM (inactive)
Cc1cccc(C)c1OCC(O)CNC(C)c1ccccc1 (stereo not given) | > 30 µM (inactive)
CCOC(=O)C1CCCN(c2c(C(=O)c3ccccc3)cnc3ccccc23)C1 (stereo not given) | > 30 µM (inactive)
COc1cc2sc(C)nc2c2ccccc12 | > 30 µM (inactive)
CN1CCc2nc3sc(C#N)c(N)c3c(-c3cccs3)c2C1 | 0.675 µM
COc1cccc(Cn2nnc(C(=O)Nc3cc(Cl)ccc3OC)c2N)c1 | > 30 µM (inactive)
CCc1ccc(C2CC(c3ccc(Cl)cc3)n3nc(N)nc3N2)cc1 (stereo not given) | > 30 µM (inactive)
COc1ccc2nc(C)cc(N3CCN(S(=O)(=O)c4ccccc4F)CC3)c2c1 | 8.27 µM
O=C1CCCC2=C1C(c1ccc(O)cc1)c1c(ccc3ccccc13)N2 (stereo not given) | > 30 µM (inactive)
O=C(COC(=O)C1CCC1)c1c[nH]c2ccccc12 | > 30 µM (inactive)
CCOC(=O)c1cccnc1NC(=O)c1ccncc1 | > 30 µM (inactive)
O=c1cc(-c2ccc(O)cc2)oc2c1ccc1ccccc12 | 1.33 µM

Structure (SMILES) | AC50
CCSc1nc2c(c(=O)[nH]1)C(c1ccc(C)cc1)C1=C(CCCC1=O)N2 (stereo not given) | > 30 µM (inactive)
O=C(CSc1nnc(SCc2ccccc2)s1)N/N=C/c1ccc(C(=O)O)cc1 | 2.55 µM
COc1cc(/C=N/NC(=O)c2cccs2)ccc1O | > 30 µM (inactive)
COc1ccc(-c2csc3nc(C)nc(N4CCC(C)CC4)c23)cc1OC | > 30 µM (inactive)
COc1ccc(/C=N/NC(=O)CSCc2ccc([N+](=O)[O-])cc2)cc1OC | > 30 µM (inactive)
COc1c(NC(C)=O)c2ccccc2c2ccccc12 | > 30 µM (inactive)
O=C(N/N=C/c1cccnc1)c1cc2c(ccc3ccccc32)o1 | > 30 µM (inactive)
CCOC(=O)N1CCC(N2CCN(S(=O)(=O)c3ccc(C)cc3)CC2)CC1 | > 30 µM (inactive)
CC(C)CSc1ncnc2c1oc1nc3c(cc12)COC(C)(C)C3 | > 30 µM (inactive)
Cc1ccc(N(Cc2ccc([N+](=O)[O-])cc2)C(=O)c2ccco2)cc1 | > 30 µM (inactive)
COc1ccc(S(=O)(=O)NC(C)C(=O)O)cc1 (stereo not given) | > 30 µM (inactive)
COc1ccc(/C=C2\Oc3cc(OCC(=O)N4CC(O)C[C@H]4C(=O)O)ccc3C2=O)cc1OC (stereo not given in full) | > 30 µM (inactive)
CN1/C(=C\C=C(C#N)C#N)C(C)(C)c2ccccc21 | > 30 µM (inactive)
CCOc1cccc(-c2c(C(=O)N/N=C/c3ccncc3)nnn2-c2nonc2N)c1 | 2.13 µM
Nc1ncnc2nc(SCc3ccc(Cl)cc3Cl)[nH]c12 | > 30 µM (inactive)
NC(=O)CSc1nc(C2CC2)nc2sc3c(c12)CCCC3 | > 30 µM (inactive)
Cc1ccc(-c2noc(CSc3nnnn3-c3ccccc3)n2)cc1 | > 30 µM (inactive)
CCOC(=O)C(CC)Sc1ccc2nnc(-c3cccnc3)n2n1 (stereo not given) | > 30 µM (inactive)
O=C(NCCO)c1ccccc1O | > 30 µM (inactive)
COc1cccc(C(C[N+](=O)[O-])c2c(C)[nH]n(-c3ccccc3)c2=O)c1 (stereo not given) | > 30 µM (inactive)
COc1ccccc1-n1c(O)c(C=NCCCn2ccnc2)c(=O)[nH]c1=O | 18.1 µM
COc1ccc(CC(=O)Nc2ccc(-c3cn4ccccc4n3)cc2)cc1OC | > 30 µM (inactive)
Cc1ccc(OCc2nnnn2-c2ccccc2)cc1 | > 30 µM (inactive)
COc1ccc(C(=O)Nc2nc(C)cc(C)n2)cc1 | > 30 µM (inactive)

Structure (SMILES) | AC50
COc1cc(C2CC(=O)N3CN(Cc4ccccc4)CSC3=C2C#N)ccc1OCc1ccccc1 (stereo not given) | > 30 µM (inactive)
Cc1cn(C2OC(CC(=O)Oc3ccccc3)C(O)C2O)c(=O)[nH]c1=O (stereo not given) | 19.1 µM
Cc1ccc(NC(=O)c2cc(-n3cnnc3)ccc2Cl)c(C)c1 | > 30 µM (inactive)
CCC(=O)c1ccc(OCC(O)CN2CCCCC2)cc1 (stereo not given) | > 30 µM (inactive)
CCN(C(=O)CN1CCCCC1)c1c(N)n(Cc2ccccc2)c(=O)[nH]c1=O | > 30 µM (inactive)
C/C(CC(=O)N(C(C)C)C(C)C)=N\NC(=O)COc1ccc(Cl)cc1Cl | > 30 µM (inactive)
CCN1CCN(c2nc(N)c([N+](=O)[O-])c(Nc3ccc(C)cc3)n2)CC1 | > 30 µM (inactive)
COc1ccccc1N1CC(C(=O)Nc2nc(C)cs2)CC1=O (stereo not given) | > 30 µM (inactive)
S=C(Nc1ccc2c(c1)OCCO2)Nc1ccccc1Cl | > 30 µM (inactive)
O=C(N/N=C/c1ccccn1)c1cccc(NC(=O)c2ccccc2Cl)c1 | 15.9 µM
CCN(CC)CCOc1ccc2c(c1)C(=NNC(=O)c1ccccn1)c1cc(OCCN(CC)CC)ccc1-2 | > 30 µM (inactive)
Cc1c(C(=O)OC2CCCCC2)[nH]c2c1C(=O)CC(C)(C)C2 | > 30 µM (inactive)
CC(/C=N/NC(=O)c1nnn(-c2nonc2N)c1C(C)C)=C\c1ccco1 | > 30 µM (inactive)
Cc1ccccc1CNC(=O)c1cc(COc2ccc(F)cc2F)on1 | > 30 µM (inactive)
O=C(Nc1cccc(Cl)c1N1CCCC1)c1ccc(Br)o1 | > 30 µM (inactive)
C[C@H](CO)N1C[C@H](C)[C@@H](CN(C)S(=O)(=O)c2ccc(F)cc2)Oc2c(NC(=O)Cc3ccccc3)cccc2C1=O | > 30 µM (inactive)
COc1ccc(-c2nc3ncccn3c2Nc2ccccc2)cc1 | > 30 µM (inactive)
COc1cc(/C=N/NC(=O)c2ccc(COc3ccccc3Cl)o2)cc(Br)c1O | > 30 µM (inactive)
CC(C)N1C(=O)/C(=C/C=C/c2ccco2)C(=O)N(Cc2ccco2)C1=O | > 30 µM (inactive)
O=C(CSc1ccccc1)Nc1nnc(C2CC2)s1 | > 30 µM (inactive)
Brc1ccccc1/C=N/Nc1ccc2ccccc2n1 | > 30 µM (inactive)
Cc1ccc2c(c1)COc1c3ccc(C(=O)N4CCOCC4)cc3nn1-2 | > 30 µM (inactive)
